Data as given in ChEMBL document CHEMBL1201862, “PubChem BioAssay data set” (2004).
Active and inactive are the calls of the source.

Tests used:
[1] = target: Lysine-specific demethylase 4C (Homo sapiens, UniProt Q9H3R0); experiment: GASC-1 (JMJD2C) histone demethylase inhibitors, dose response, biochemical, DELFIA europium, cherry-picked samples (AID 488835); type: functional
[2] = target: Fructose-bisphosphate aldolase (Mycobacterium tuberculosis, UniProt P9WQA3); experiment: Fluorescence-based biochemical high throughput dose response assay for inhibitors of the fructose-bisphosphate aldolase (FBA) of M. tuberculosis.; type: functional
[3] = system: Vero; experiment: Vero cell cytotoxicity, cytotoxicity control for flavivirus capping enzyme inhibitors (AID 588742); type: functional; details: Chlorocebus sabaeus
[4] = target: Genome polyprotein (dengue virus type 2, UniProt P29990); experiment: Dengue-2 NS5 methyltransferase inhibitors, primary screen, biochemical, confirmation dose response (AID 588689); type: functional
[5] = target: Endoribonuclease toxin MazF (Escherichia coli K-12, UniProt P0AE70); experiment: MazF toxin RNase activators, dose response, biochemical, fluorescence, single-stranded RNA substrate, uHTS hits (AID 588481); type: functional
[6] = target: T1, Caspase-6 (Homo sapiens, UniProt P55212); experiment: human caspase-6 inhibitors, dose response, biochemical, VEID-R110 fluorescence, cherry-pick (AID 720632)
T1 sequence (P55212 whole entry): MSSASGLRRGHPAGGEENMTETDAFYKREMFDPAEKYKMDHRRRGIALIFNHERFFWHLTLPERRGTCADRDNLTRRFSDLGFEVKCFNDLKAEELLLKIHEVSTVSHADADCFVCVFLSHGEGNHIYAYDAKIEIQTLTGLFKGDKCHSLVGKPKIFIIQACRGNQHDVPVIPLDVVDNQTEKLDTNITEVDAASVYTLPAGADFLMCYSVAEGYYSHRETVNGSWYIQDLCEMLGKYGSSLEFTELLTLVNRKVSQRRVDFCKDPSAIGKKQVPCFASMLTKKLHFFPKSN

[7] = system: HEK293; experiment: SAR Analysis of small molecule inhibitors of T-cell specific antigen receptor-induced NF-kB activation in a HEK-293T cell line using a luminescence assay - Set 2. [Related pubchem assays (depositor defined):AID435003, AID435012, AID489026]; type: functional, cell-based; details: Homo sapiens
[8] = system: BJ; experiment: cytotoxicity toward BJ-TERT-LT-ST fibroblasts, dose response, cell-based, RAS-independent, luminescence (AID 1935); type: functional; details: Homo sapiens;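 note: BJ fibroblasts immortalized with TERT plus LT and ST oncogenes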
[9] = cells; type: functional, cell-based
[10] = system: Vero; experiment: cells; type: functional, cell-based; details: Chlorocebus sabaeus
[11] = target: ATP-dependent molecular chaperone HSP82 (Candida albicans (strain WO-1) (Yeast), UniProt C4YTQ8); experiment: loss of DOC-induced GRE-beta-galactosidase reporter signal, dose response, Hsp90 inhibitor project, S. cerevisiae, luminescence (AID 2400); type: functional, cell-based;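 note: beta-galactosidase luminescence from glucocorticoid response element reporter as proxy for Hsp90 function; inhibitor potency where signal loss means Hsp90 inhibition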
[12] = cytotoxicity toward NIH3T3 fibroblasts, dose response, counter-screen, cell-based, ATP luminescence, mouse fibroblasts (AID 2010); type: functional;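 note: cells exposed to compound for about 90 hours before reading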
[13] = target: T2, Calpain-2 catalytic subunit (Sus scrofa, UniProt P43367); experiment: pig calpain II inhibitor potency, dose response, biochemical, fluorogenic peptide substrate (AID 1420); type: functional
T2 sequence (P43367 whole entry): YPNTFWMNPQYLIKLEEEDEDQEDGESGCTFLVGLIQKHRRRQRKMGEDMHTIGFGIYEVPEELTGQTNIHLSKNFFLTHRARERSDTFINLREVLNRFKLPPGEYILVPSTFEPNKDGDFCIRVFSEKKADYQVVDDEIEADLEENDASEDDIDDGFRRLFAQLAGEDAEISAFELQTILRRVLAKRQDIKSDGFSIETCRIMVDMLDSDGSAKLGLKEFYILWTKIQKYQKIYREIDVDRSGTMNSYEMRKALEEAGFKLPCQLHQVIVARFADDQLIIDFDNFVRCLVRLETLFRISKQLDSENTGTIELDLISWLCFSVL

[14] = target: T3, Aminopeptidase N (Plasmodium falciparum FcB1/Columbia, UniProt O96935); experiment: P. falciparum M1AAP inhibitors, biochemical, fluorogenic H-Leu-NHMec substrate, 1536-well (AID 1445); set-up: species or system Plasmodium falciparum 3D7, 3D7
T3 sequence (O96935 whole entry): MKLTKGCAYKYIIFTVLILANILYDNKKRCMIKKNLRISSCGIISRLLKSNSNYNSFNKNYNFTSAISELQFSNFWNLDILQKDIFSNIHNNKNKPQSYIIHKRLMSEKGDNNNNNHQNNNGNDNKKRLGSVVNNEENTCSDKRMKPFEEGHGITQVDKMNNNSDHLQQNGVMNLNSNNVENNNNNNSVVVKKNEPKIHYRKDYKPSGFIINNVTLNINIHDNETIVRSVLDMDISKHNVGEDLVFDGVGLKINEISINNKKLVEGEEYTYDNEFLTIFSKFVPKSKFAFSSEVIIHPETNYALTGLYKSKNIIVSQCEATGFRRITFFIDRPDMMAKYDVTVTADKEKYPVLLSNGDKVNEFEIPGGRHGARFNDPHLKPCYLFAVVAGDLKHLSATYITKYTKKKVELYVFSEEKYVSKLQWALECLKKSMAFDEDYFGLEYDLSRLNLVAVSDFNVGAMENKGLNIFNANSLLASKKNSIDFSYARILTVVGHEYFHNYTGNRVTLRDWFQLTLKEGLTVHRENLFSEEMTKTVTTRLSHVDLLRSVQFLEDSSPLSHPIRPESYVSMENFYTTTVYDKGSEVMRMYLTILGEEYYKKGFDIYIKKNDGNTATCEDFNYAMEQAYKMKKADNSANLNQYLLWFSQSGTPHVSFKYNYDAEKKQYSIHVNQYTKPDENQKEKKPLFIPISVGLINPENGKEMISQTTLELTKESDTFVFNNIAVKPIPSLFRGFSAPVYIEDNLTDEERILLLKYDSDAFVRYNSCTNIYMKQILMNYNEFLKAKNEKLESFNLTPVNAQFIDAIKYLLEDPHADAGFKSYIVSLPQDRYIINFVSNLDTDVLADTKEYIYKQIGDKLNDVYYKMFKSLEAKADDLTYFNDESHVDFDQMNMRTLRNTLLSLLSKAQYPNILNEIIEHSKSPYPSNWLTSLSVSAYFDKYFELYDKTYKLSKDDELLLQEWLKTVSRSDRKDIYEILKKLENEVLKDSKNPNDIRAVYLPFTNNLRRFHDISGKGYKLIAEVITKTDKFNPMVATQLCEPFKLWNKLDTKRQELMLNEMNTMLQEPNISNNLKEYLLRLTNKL

[15] = system: HEK293; experiment: Fluorescence-based counterscreen for potentiators or agonists of NPY-Y2: cell-based high-throughput dose response assay to identify inhibitors of cyclic nucleotide gated ion channel (CNGC) activity. In this assay, the parental HEK293 cell line transfected with a cyclic-nucleotide gated ion channel (CNGC)-based cAMP sensor is used to measure inhibition of isoproterenol-induced CNGC activity by test compound.; type: functional; details: Homo sapiens
[16] = CellTiter-Glo luminescent dose response of DLD-1 viability loss (AID 1117352); type: functional
[17] = cytotoxicity toward Colo320 cells – cell-based, CellTiter-Glo luminescence, IC50, dose response (AID 1117334); type: functional; details: COLO 320
[18] = cytotoxicity toward HCT116 cells – cell-based, CellTiter-Glo luminescence, IC50, dose response (AID 1117332); type: functional; details: HCT-116
[19] = target: Eukaryotic translation initiation factor 4E (Mus musculus, UniProt P63073); experiment: eIF4E–eIF4G protein interaction inhibitors, dose response, biochemical, TR-FRET (AID 855); type: functional;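 note: potency for disrupting eIF4E binding to eIF4GI seen as loss of FRET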
Chain of Eukaryotic translation initiation factor 4E (P63073 whole entry): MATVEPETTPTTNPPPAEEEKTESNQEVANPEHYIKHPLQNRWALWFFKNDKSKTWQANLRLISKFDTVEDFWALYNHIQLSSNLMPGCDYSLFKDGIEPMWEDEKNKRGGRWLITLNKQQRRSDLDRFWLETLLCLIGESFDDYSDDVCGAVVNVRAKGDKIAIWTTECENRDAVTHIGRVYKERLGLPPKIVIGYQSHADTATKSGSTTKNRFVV

Chain of Fructose-bisphosphate aldolase (P9WQA3 whole entry): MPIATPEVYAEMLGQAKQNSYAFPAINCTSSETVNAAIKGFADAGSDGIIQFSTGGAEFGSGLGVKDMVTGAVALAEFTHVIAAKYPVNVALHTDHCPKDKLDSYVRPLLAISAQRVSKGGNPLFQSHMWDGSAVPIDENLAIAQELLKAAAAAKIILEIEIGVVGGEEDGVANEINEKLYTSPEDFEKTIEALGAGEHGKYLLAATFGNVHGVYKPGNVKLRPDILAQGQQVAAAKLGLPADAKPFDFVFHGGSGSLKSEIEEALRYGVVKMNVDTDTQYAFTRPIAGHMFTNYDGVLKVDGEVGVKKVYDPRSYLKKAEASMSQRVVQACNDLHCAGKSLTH
Chain of ATP-dependent molecular chaperone HSP82 (C4YTQ8 whole entry): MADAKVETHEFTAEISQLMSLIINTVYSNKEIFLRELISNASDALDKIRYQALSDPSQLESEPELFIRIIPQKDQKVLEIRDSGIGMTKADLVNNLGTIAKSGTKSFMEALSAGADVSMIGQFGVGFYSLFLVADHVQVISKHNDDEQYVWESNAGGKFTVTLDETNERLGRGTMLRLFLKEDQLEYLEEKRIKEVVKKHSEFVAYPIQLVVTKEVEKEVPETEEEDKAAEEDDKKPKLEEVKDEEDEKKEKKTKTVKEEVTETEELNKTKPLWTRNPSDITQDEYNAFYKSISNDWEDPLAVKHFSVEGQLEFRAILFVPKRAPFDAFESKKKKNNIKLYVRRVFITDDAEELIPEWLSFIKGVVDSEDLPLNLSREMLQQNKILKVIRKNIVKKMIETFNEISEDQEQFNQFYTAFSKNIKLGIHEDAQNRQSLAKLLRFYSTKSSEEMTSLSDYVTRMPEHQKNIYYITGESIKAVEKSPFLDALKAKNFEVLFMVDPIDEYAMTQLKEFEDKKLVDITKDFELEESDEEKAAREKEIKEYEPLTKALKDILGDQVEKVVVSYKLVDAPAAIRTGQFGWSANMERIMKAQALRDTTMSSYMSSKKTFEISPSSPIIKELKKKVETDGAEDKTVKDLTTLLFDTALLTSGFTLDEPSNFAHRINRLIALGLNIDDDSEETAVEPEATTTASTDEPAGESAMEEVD
Chain of Genome polyprotein (P29990 2492-3391 limits assumed): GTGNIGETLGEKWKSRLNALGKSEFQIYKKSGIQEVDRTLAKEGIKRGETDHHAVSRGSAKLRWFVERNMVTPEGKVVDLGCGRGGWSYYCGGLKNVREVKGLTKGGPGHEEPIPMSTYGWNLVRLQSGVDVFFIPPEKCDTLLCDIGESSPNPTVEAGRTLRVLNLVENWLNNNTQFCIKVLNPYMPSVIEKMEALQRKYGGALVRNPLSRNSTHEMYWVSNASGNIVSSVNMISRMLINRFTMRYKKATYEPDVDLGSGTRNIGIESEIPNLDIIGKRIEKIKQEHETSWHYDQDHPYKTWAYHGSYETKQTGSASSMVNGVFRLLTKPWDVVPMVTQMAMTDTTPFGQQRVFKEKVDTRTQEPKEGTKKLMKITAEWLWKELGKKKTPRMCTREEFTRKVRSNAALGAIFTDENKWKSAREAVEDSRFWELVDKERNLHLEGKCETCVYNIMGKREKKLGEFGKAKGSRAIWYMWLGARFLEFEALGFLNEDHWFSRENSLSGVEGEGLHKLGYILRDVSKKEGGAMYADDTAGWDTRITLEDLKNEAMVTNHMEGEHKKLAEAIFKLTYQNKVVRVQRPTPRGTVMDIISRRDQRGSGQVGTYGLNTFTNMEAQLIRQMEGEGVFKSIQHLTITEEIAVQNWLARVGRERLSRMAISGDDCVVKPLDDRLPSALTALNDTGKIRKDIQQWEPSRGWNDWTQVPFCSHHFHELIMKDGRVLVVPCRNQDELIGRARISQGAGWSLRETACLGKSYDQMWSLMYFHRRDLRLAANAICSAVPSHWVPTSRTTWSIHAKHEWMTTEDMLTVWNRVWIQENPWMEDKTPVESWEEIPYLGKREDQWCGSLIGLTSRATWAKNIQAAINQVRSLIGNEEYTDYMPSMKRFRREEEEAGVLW
Chain of Endoribonuclease toxin MazF (P0AE70 whole entry): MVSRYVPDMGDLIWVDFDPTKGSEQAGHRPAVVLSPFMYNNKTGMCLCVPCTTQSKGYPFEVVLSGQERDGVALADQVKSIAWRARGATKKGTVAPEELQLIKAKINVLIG
Chain of Lysine-specific demethylase 4C (Q9H3R0 whole entry): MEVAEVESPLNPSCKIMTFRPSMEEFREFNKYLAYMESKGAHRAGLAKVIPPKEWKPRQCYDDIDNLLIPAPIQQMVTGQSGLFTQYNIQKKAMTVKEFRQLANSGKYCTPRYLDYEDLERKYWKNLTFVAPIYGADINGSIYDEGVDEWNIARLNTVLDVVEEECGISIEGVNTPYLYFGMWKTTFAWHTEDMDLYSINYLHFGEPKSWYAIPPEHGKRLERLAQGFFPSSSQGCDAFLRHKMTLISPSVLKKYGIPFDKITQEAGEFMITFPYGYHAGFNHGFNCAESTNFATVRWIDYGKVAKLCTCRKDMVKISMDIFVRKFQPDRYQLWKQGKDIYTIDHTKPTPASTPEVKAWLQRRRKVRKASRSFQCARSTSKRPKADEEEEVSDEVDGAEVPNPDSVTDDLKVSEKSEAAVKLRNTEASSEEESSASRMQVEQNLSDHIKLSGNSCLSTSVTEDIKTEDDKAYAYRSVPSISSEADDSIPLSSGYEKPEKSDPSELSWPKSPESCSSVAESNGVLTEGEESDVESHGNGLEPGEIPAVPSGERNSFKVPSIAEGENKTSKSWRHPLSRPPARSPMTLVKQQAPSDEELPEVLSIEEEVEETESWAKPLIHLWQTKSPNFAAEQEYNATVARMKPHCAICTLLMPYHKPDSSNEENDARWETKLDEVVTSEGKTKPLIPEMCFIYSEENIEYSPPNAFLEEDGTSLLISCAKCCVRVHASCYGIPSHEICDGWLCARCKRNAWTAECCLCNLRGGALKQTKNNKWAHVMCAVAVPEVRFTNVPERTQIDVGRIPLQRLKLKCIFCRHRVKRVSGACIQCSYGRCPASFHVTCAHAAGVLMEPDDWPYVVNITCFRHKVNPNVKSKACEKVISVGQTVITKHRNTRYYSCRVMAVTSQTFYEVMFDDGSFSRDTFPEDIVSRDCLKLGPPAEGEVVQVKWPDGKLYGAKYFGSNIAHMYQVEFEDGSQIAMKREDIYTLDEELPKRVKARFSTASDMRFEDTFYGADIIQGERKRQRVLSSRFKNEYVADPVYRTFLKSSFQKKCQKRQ

In the case of `N#Cc1c(N2CCCCC2)nc(N)c2c(N)nc(SCC(=O)O)cc12`, the AC50 [1] is reported as 5.4 µM (active) and the IC50 [2] is reported as 8.03 µM (active).

For `CCc1ccc(S(=O)(=O)Nc2cc(SCC(=O)O)c(O)c3ccccc23)cc1`, the CC50 [3] was 33.6 µM (active) and the IC50 [4] was 9.53 µM (active).

For `O=[N+]([O-])c1ccc(Sc2cccc[n+]2[O-])c2nonc12`, the EC50 [5] was > 99 µM (inactive) and the AC50 [6] was 7.21 µM (active).

With `CCCC(=O)NC(c1ccc(C(C)C)cc1)c1ccc2cccnc2c1O` (centres undefined) the IC50 [7] was 3.76 µM (active), the EC50 [8] was 2.1 µM (inconclusive) and the EC50 [9] was > 350 µM (not active). For the same compound, the IC50 [10] was > 25 µM (active), the EC50 [11] was > 160 µM (inactive) and the EC50 [12] was 3.75 µM (active).

For `Oc1c(Cl)cc(Cl)c(Cl)c1Cc1c(O)c(Cl)cc(Cl)c1Cl` [HEXACHLOROPHENE], the IC50 [13] was 3.73 µM (active), the IC50 [14] was 58 µM (active) and the EC50 [15] was > 11.8 µM (not active). The IC50 [16] was 0.0157 µM (active), the IC50 [17] was 0.0572 µM (active) and the IC50 [18] was 0.0312 µM (active). The IC50 [19] was 17.9 µM (active).
